Data set [1] deals with T1, RintHH_11820 (NatB), SBP of N-I transporter (Richelia intracellularis, UniProt M1WZ73).
T1 construct: mature protein, signal peptide removed, N-terminal His tag, E. coli, nickel column
T1 sequence (M1WZ73 24-438): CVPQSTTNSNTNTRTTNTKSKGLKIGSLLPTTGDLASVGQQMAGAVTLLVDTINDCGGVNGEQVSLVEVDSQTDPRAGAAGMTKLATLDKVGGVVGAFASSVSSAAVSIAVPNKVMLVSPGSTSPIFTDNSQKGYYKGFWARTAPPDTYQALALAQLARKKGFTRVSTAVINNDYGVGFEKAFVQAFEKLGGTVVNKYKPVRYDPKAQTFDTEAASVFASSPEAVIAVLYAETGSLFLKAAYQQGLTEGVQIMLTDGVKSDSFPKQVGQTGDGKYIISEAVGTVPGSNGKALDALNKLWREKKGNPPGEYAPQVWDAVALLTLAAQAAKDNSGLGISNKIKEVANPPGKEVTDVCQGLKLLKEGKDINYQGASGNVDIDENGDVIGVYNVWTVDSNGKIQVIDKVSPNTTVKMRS
Put plainly: intrinsic Trp fluorescence quenching. It counts as binding. Particulars: excitation 280 nm, emission ~340 nm; ligand ~116 µM.

The target in data set [2] is T2, RintHH_17430 (GlsR), periplasmic SBP (Richelia intracellularis, UniProt M1X141).
T2 construct: mature protein, signal peptidase II signal peptide removed, N-terminal Cys fused to Strep-tag II; pET28b(+), E. coli, StrepTrap
T2 sequence (M1X141 41-442): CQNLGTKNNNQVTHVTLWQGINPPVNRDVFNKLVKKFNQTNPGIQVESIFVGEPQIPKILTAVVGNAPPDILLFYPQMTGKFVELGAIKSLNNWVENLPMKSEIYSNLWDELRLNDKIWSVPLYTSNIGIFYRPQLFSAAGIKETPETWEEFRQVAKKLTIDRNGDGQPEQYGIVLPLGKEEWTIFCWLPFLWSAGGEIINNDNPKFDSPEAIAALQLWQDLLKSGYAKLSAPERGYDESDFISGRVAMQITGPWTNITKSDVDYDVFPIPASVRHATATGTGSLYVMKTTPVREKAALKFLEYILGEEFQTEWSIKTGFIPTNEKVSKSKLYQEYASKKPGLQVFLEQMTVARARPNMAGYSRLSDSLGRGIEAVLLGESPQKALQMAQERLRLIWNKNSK
Put plainly: intrinsic Trp fluorescence quenching. It counts as binding. The settings on record: 0.02 mM protein, excitation 280 nm, emission ~340 nm.

For data set [3], the target named is T3, RintHH_12770 (NatF), SBP of N-II transporter (Richelia intracellularis, UniProt M1WZB0).
T3 construct: mature protein, signal peptide removed, N-terminal His tag, E. coli, nickel column
T3 sequence (M1WZB0 22-348 limits assumed): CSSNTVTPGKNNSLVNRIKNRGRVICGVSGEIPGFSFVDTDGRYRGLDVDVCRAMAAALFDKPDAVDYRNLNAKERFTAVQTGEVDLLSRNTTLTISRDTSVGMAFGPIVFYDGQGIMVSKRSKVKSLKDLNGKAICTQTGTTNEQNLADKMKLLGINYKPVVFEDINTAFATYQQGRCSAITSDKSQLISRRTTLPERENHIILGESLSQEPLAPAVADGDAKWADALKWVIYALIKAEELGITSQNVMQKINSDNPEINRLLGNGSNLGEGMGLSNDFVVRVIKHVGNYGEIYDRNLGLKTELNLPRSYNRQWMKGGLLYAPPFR
The experiment in a line: intrinsic Trp fluorescence quenching. It counts as binding. Particulars: excitation 280 nm, emission ~340 nm; ligand ~7 µM.

Substrate in data set [4]: OC[C@H]1O[C@@](CO)(O[C@H]2O[C@H](CO)[C@@H](O)[C@H](O)[C@H]2O)[C@@H](O)[C@@H]1O
Put plainly: glucose production by HPLC (Dionex), E. coli cell-free extract. It counts as biochemical, Richelia intracellularis. The settings on record: pH 7, 30 °C, 120 mM potassium phosphate, crude extract.

For `NCC(=O)O` [Gly], in data set [1], the “% quenching” value was “substantial quenching was produced by the neutral amino acids (L-Pro, L-Ala, L-Phe, Gly, and L-Leu)”. Still for that read-out and setting: then `O=C(O)[C@@H]1CCCN1` [L-Pro], with “substantial quenching was produced by the neutral amino acids (L-Pro, L-Ala, L-Phe, Gly, and L-Leu)”; and `CC(C)C[C@H](N)C(=O)O` [L-Leu], with “substantial quenching was produced by the neutral amino acids (L-Pro, L-Ala, L-Phe, Gly, and L-Leu)”; and `C[C@H](N)C(=O)O` [L-Ala], with “substantial quenching was produced by the neutral amino acids (L-Pro, L-Ala, L-Phe, Gly, and L-Leu)”. Take `OC[C@H]1O[C@@](CO)(O[C@H]2O[C@H](CO)[C@@H](O)[C@H](O)[C@H]2O)[C@@H](O)[C@@H]1O` [sucrose]: in data set [2], the “% quenching at 1 μM” value is reported as ~ 22.5%. Turning to `N[C@@H](CCC(=O)O)C(=O)O` [L-Glu], the “% quenching” value in data set [3] was “substantial quenching was only seen with L-Glu”.

B1: RintHH_3860 (InvB), neutral invertase (Richelia intracellularis HH01) (protein)
chain: MQPHKVILKDVEKDAWDTLEKTIIYYQGNPIGTVAALDSTANTLNYDQCFVRDFVVSALLFLIKGRTEIVRNFLKQTLKLQPKKKQLGTYKPGRGLMPASFKVTFNNGQEELEADFGENAIARVTPVDSSLWWIVLLRAYVVATKDYSLAYQDDFQQGIRLILDLCLATRFDMYPTLLVPDGACMIDRRLGIHGHPLEIQSLYYAALRAARELLICQGNEELVFAIDNRLPVLAAHIRKHYWIDLHRLNDIYRYRGEEYGKDAVNQFNIYVDSIPYSELDRWLPKGGGYLAGNVGPSQMDTRFFTLGNLMAVIIDLTTQEQSQAIMTLIEQRWDDLVGDMPMKITFPALENEEYKYVTGCDPKNIPWSYHNAGNWPVLMWMLAAACVKTNHRELMQRALTIAQERLKNDEWPEYYDGKQGRLIGRQSRKYQTWTIVGFLLAKEILAQPGSLSLISFDPFITKQVSQACELKFDYFDS
notes: synthetic gene in pET28b(+), expressed in E. coli; crude cell-free extract (purification unsuccessful)
A word on the Km: it is the concentration of substrate that gives half-maximal velocity. As to B1, the Michaelis-Menten constant (Km) in data set [4] stood at 25.7 mM.
